Values quoted from earlier work, collected in patent US8895039B2, “Cosmetic preparations containing hydrocarbons” (Cognis IP Management GmbH, priority 2007, dated 2014).

Details: at 20° C.

Viscosity: 0.711 cP
SMILES: CCCCCCCCC [Nonane]
